Earlier results as cited in patent publication US12268783B2, “Platform drug delivery system utilizing crystal engineering and theanine dissolution” (THEAPRIN PHARMACEUTICALS, INC., priority 2015, dated 2025).

System: Chironex fleckeri venom
Conditions: mice following venom injection

In the case of zinc gluconate, the survival time is listed as “prolonged survival time”.
